Target: T1, human TLR8 (Homo sapiens, UniProt Q9NR97)
T1 construct: host or cells: HEK293 (HEK-Blue hTLR8)
T1 sequence (Q9NR97 27-1041): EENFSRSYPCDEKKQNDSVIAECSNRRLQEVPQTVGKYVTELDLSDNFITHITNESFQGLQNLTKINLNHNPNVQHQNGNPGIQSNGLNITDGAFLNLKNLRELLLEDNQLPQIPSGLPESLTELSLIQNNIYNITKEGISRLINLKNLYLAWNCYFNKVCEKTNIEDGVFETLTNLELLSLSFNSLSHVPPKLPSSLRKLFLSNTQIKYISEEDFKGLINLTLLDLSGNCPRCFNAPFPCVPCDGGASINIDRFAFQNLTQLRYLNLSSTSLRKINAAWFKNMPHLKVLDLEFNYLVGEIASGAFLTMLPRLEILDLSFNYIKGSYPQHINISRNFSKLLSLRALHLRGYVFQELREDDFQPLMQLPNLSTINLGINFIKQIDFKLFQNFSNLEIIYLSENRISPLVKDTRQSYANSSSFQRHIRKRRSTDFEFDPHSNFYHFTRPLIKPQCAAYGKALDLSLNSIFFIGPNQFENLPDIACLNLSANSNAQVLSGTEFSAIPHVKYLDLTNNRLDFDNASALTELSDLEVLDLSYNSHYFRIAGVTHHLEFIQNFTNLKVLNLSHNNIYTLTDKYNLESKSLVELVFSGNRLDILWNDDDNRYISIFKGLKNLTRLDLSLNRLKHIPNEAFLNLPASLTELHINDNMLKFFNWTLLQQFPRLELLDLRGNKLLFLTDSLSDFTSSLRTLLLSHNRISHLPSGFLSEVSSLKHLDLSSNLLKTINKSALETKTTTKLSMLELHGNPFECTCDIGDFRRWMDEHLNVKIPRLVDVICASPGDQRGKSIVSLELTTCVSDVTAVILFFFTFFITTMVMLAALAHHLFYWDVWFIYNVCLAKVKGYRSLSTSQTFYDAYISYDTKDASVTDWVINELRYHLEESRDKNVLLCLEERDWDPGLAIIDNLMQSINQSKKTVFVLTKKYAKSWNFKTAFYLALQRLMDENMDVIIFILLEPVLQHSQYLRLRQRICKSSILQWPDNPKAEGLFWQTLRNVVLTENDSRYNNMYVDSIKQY
Assay: HEK293-Blue-hTLR-8 cells assay (SEAP reporter, R848 stimulation)
Type: cell-based
Settings: HEK293-Blue-hTLR8 cells, R848 ligand, 20 hrs incubation; read-out: HEK/hTLR8 IC50
From the text: HEK293-Blue-hTLR-8 Cells Assay:
A stable HEK293-Blue-hTLR-8 cell line was purchased from InvivoGen (Cat. #: hkb-htlr8, San Diego, Calif., USA). These cells were originally designed for studying the stimulation of human TLR8 by monitoring the activation of NF-κB. A SEAP (secreted embryonic alkaline phosphatase) reporter gene was placed under the control of the IFN-β minimal promoter fused to five NF-κB and AP-1-binding sites. The SEAP was induced by activating NF-κB and AP-1 via stimulating HEK-Blue hTLR8 cells with TLR8 ligands. Therefore the reporter expression was declined by TLR8 antagonist under the stimulation of a ligand, such as R848, for incubation of 20 hrs. The cell culture supernatant SEAP reporter activity was determined using QUANTI-Blue™ kit (Cat. #: rep-qb1, Invivogen, San Diego, Ca, USA) at a wavelength of 640 nm, a detection medium that turns purple or blue in the presence of alkaline phosphatase.
HEK293-Blue-hTLR8 cells were incubated at a density of 250,000-450,000 cells/mL in a volume of 170 μL in a 96-well plate in Dulbecco's Modified Eagle's medium (DMEM) containing 4.5 g/L glucose, 50 U/mL penicillin, […], […], 2 mM L-glutamine, 10% (v/v) heat-inactivated fetal bovine serum with addition of 20 μL test compound in a serial dilution in the presence of final DMSO at 1% and 10 μL of 60 uM R848 in above DMEM, perform incubation under 37° C. in a CO2 incubator for 20 hrs. Then 20 μL of the supernatant from each well was incubated with 180 μL Quanti-blue substrate solution at 37° C. for 2 hrs and the absorbance was read at 620-655 nm using a spectrophotometer. The signaling pathway that TLR8 activation leads to downstream NF-κB activation has been widely accepted, and therefore similar reporter assay was modified for evaluating TLR8 antagonist.

Compound: C[C@@H]1CN(c2cc(=O)n(C)c3ncccc23)C[C@@H]2c3ccc(N4CCC[C@](C)(N)C4)cc3CN12 [Example 15, 4-[(4R,10bS)-8-[(3S)-3-amino-3-methyl-1-piperidyl]-4-methyl-3,4,6,10b-tetrahydro-1H-pyrazino[2,1-a]isoindol-2-yl]-1-methyl-1,8-naphthyridin-2-one]
- IC50: 7.2 nM

— US20230041743A1, “1,8-NAPHTHYRIDIN-2-ONE COMPOUNDS FOR THE TREATMENT OF AUTOIMMUNE DISEASE” (Hoffmann-La Roche Inc., priority 2019, published 2023)
